# Laboratory results as given in patent US11591604B2, “Gene expression in Bacteroides” (Massachusetts Institute of Technology, priority 2015, dated 2023).
# Test system: NanoLuc
# Test: NanoLuc luciferase reporter expression from constitutive promoters and RBSs integrated with pNBU2
# Assay type: cell-based, B. thetaiotaomicron
# Conditions: RBS combined with promoter PBT1311, NanoLuc reporter, three biological replicates
# Description: FIGS. 1A-1G. Genetic parts to control expression in B. thetaiotaomicron. (FIG. 1A) The ranges of gene expression are shown for the different gene regulation systems provided herein. (FIG. 1B) IntN2 catalyzes stable integration of pNBU2-based expression constructs into one of two attBT2 sites in the B. thetaiotaomicron genome. The two attBT2 sites (attBT2-1 at nucleotide (nt) 6,217,227 and attBT2-2 at nt 6,138,320) are in the 3′ ends of tRNA^Ser genes (BT_t71 and BT_t70, respectively). (FIG. 1C) Constitutive promoters and ribosome binding sites for the construction of gene expression libraries. The putative −33 and −7 regions of the PBT1311 promoter, the Shine-Delgarno sequence, and the start codon are indicated by black boxes. Numbers below the black boxes represent nucleotide locations relative the PBT1311 transcription start site. The 26 nt sequences introduced in the PAM promoters are shown (see also FIGS. 6A-6B). Numbers at the edges of the boxes indicate the PBT1311 nucleotides replaced or the insertion site within the promoter. The location of residues randomized in the rpiL* RBS library are indicated with gray arrows (for library A: nt −14, −13, −12; for library B: nt −21, −18, −15; and for library C: nt −17, −16, −11; nt numbering is relative to the translation start site). (FIG. 1D) Activity was measured for a set of constitutive promoters and their cognate RBSs. Furthermore, a set of constitutive promoters (PBT1311, PAM1, PAM2, PAM3, PAM4) was combined with RBSs of varying strengths. Gene expression was measured using a luciferase reporter (NanoLuc). (FIG. 1E) Three large RBS libraries were constructed and combined with promoter PBT1311 to span 10^3-fold in gene expression. For reference, the parent rpiL* RBS is indicated with a black arrow. For D and E, error bars represent the standard deviation of three independent biological replicates made on separate days. (FIG. 1F) The strength of each RBS was compared to the predicted free energy of folding for the mRNA (ΔGfold,). (FIG. 1G) Strong (SEQ ID NO: 210) and weak (SEQ ID NO: 211) consensus sequences for the rpiL* −21 to −11 RBS region targeted by mutagenesis (residue locations are stated relative to the translation start site) are provided. Frequency logos were generated for the 11 strongest and 11 weakest RBSs by comparing the frequency of each nucleotide at each position in that group with the frequency of that nucleotide in that position in the full library. Position −20 and −19 were not randomized and are thus are not shown in the frequency logos.
# All genetic parts in this study were characterized using the integration vector pNBU2 to ensure genetic stability of the constructs (FIG. 1B). The pNBU2 plasmid encodes the intN2 tyrosine integrase, which mediates sequence-specific recombination between the attN site of pNBU2 and one of two attBT sites located in the 3′ ends of the two tRNA^Ser genes, BT_t70 and BT_t71, on the B. thetaiotaomicron chromosome (FIG. 1B). Insertion of the pNBU2 plasmid inactivates the tRNA^Ser gene, and simultaneous insertion into both BT_t70 and BT_t71 is unlikely due to the essentiality of tRNA^Ser. pNBU2-based vectors have been used for single-copy complementation in B. thetaiotaomicron in in vitro studies (Koropatkin N M et al. Nat. Rev. Microbiol. 10:323-35, 2012) and in vivo mouse models (Martens E C et al. Cell Host Microbe 4:447-57, 2008).
# B. thetaiotaomicron genetic parts were characterized with NanoLuc luciferase (Hall M P et al. ACS Chem. Biol. 7:1848-1857, 2012), which is a small (19 kDa) modified shrimp luciferase. Efforts to use members of the green fluorescent protein family and a FMN-based fluorescent reporter were not successful. NanoLuc oxidizes the exogenously-added substrate furimazine to produce glow-type bioluminescence (Emax=460 nm) with a signal half-life of 2 hr. […]
row,Substance,Average Luminescence (RLU/CFU)
1,"A38: RBS, SEQ ID NO: 114 (DNA TCCCGCATTTTAAAATAAAATAAATTATTCCTTTAGTTAAACGAAT; chemistry not fully specified)",0.003824
2,"A39: RBS, SEQ ID NO: 116 (DNA TCCCGCATTTTAAAATAAAATAAATTATTGTTTTATTTAAACGAAT; chemistry not fully specified)",0.003302
3,"A40: RBS, SEQ ID NO: 118 (DNA TCCCGCATTTTAAAATAAAATAAATTATTTGTTTATTTAAACGAAT; chemistry not fully specified)",0.002992
4,"A41: RBS, SEQ ID NO: 123 (DNA TCCCGCATTTTAAAATAAAATAAATTATTATTTTATTTAAACGAAT; chemistry not fully specified)",0.002417
5,"A42: RBS, SEQ ID NO: 130 (DNA TCCCGCATTTTAAAATAAAATAAATTATTGGTTTACTTAAACGAAT; chemistry not fully specified)",0.001478
6,"A43: RBS, SEQ ID NO: 131 (DNA TCCCGCATTTTAAAATAAAATAAATTATTCGTTTAATTAAACGAAT; chemistry not fully specified)",0.001461
7,"A44: RBS, SEQ ID NO: 135 (DNA TCCCGCATTTTAAAATAAAATAAATTATTCGTTTATTTAAACGAAT; chemistry not fully specified)",0.0006478
8,"A45: RBS, SEQ ID NO: 137 (DNA TCCCGCATTTTAAAATAAAATAAATTATTCGTTTACTTAAACGAAT; chemistry not fully specified)",0.0005331
9,"B1: RBS, SEQ ID NO: 1 (DNA TCCCGCATTTTAAAATAAAATAAATTATTCGTTTAGTTAAACGAAT; chemistry not fully specified)",0.09025
10,"B2: RBS, SEQ ID NO: 2 (DNA TCCCGCATTTTAAAATAAAATAAATGATATAATTAATTAAACGAAT; chemistry not fully specified)",0.06325
11,"B3: RBS, SEQ ID NO: 3 (DNA TCCCGCATTTTAAAATAAAATAAATAATATAATTAATTAAACGAAT; chemistry not fully specified)",0.06083
12,"B4: RBS, SEQ ID NO: 4 (DNA TCCCGCATTTTAAAATAAAATAAATAATTTAATTAATTAAACGAAT; chemistry not fully specified)",0.05153
13,"B5: RBS, SEQ ID NO: 5 (DNA TCCCGCATTTTAAAATAAAATAAATTATATAATTAATTAAACGAAT; chemistry not fully specified)",0.04825
14,"B6: RBS, SEQ ID NO: 6 (DNA TCCCGCATTTTAAAATAAAATAAATAATATACTTAATTAAACGAAT; chemistry not fully specified)",0.04723
15,"B7: RBS, SEQ ID NO: 8 (DNA TCCCGCATTTTAAAATAAAATAAATAATCTACTTAATTAAACGAAT; chemistry not fully specified)",0.04704
16,"B8: RBS, SEQ ID NO: 9 (DNA TCCCGCATTTTAAAATAAAATAAATTATTTAATTAATTAAACGAAT; chemistry not fully specified)",0.04684
17,"B9: RBS, SEQ ID NO: 10 (DNA TCCCGCATTTTAAAATAAAATAAATTATCTAATTAATTAAACGAAT; chemistry not fully specified)",0.04634
18,"B10: RBS, SEQ ID NO: 12 (DNA TCCCGCATTTTAAAATAAAATAAATTATATATTTAATTAAACGAAT; chemistry not fully specified)",0.04421

row,Substance,Average Luminescence (RLU/CFU)
1,"B11: RBS, SEQ ID NO: 18 (DNA TCCCGCATTTTAAAATAAAATAAATAATGTAATTAATTAAACGAAT; chemistry not fully specified)",0.03308
2,"B12: RBS, SEQ ID NO: 22 (DNA TCCCGCATTTTAAAATAAAATAAATAATATATTTAATTAAACGAAT; chemistry not fully specified)",0.03108
3,"B13: RBS, SEQ ID NO: 25 (DNA TCCCGCATTTTAAAATAAAATAAATGATTTAATTAATTAAACGAAT; chemistry not fully specified)",0.02746
4,"B14: RBS, SEQ ID NO: 26 (DNA TCCCGCATTTTAAAATAAAATAAATTATCTATTTAATTAAACGAAT; chemistry not fully specified)",0.02715
5,"B15: RBS, SEQ ID NO: 27 (DNA TCCCGCATTTTAAAATAAAATAAATGATTTACTTAATTAAACGAAT; chemistry not fully specified)",0.02695
6,"B16: RBS, SEQ ID NO: 28 (DNA TCCCGCATTTTAAAATAAAATAAATTATATACTTAATTAAACGAAT; chemistry not fully specified)",0.02683
7,"B17: RBS, SEQ ID NO: 30 (DNA TCCCGCATTTTAAAATAAAATAAATAATTTAGTTAATTAAACGAAT; chemistry not fully specified)",0.0259
8,"B18: RBS, SEQ ID NO: 35 (DNA TCCCGCATTTTAAAATAAAATAAATAATGTAGTTAATTAAACGAAT; chemistry not fully specified)",0.02291
9,"B19: RBS, SEQ ID NO: 42 (DNA TCCCGCATTTTAAAATAAAATAAATTATGTATTTAATTAAACGAAT; chemistry not fully specified)",0.02048
10,"B20: RBS, SEQ ID NO: 52 (DNA TCCCGCATTTTAAAATAAAATAAATGATCTAATTAATTAAACGAAT; chemistry not fully specified)",0.01676
11,"B21: RBS, SEQ ID NO: 53 (DNA TCCCGCATTTTAAAATAAAATAAATGATATATTTAATTAAACGAAT; chemistry not fully specified)",0.01613
12,"B22: RBS, SEQ ID NO: 55 (DNA TCCCGCATTTTAAAATAAAATAAATCATGTAATTAATTAAACGAAT; chemistry not fully specified)",0.01599
13,"B23: RBS, SEQ ID NO: 61 (DNA TCCCGCATTTTAAAATAAAATAAATAATCTATTTAATTAAACGAAT; chemistry not fully specified)",0.01464
14,"B24: RBS, SEQ ID NO: 62 (DNA TCCCGCATTTTAAAATAAAATAAATCATTTATTTAATTAAACGAAT; chemistry not fully specified)",0.01427
15,"B25: RBS, SEQ ID NO: 63 (DNA TCCCGCATTTTAAAATAAAATAAATGATTTAGTTAATTAAACGAAT; chemistry not fully specified)",0.01415
16,"B26: RBS, SEQ ID NO: 68 (DNA TCCCGCATTTTAAAATAAAATAAATTATTTAGTTAATTAAACGAAT; chemistry not fully specified)",0.01271
17,"B27: RBS, SEQ ID NO: 74 (DNA TCCCGCATTTTAAAATAAAATAAATGATATAGTTAATTAAACGAAT; chemistry not fully specified)",0.009815
18,"B28: RBS, SEQ ID NO: 77 (DNA TCCCGCATTTTAAAATAAAATAAATTATGTAGTTAATTAAACGAAT; chemistry not fully specified)",0.009593

# Same assay, conditions: set of 8 RBSs, under control of PBT1311, NanoLuc reporter
row,Substance,Expression Level (RLU/CFU)
1,"B1: RBS, SEQ ID NO: 1 (DNA TCCCGCATTTTAAAATAAAATAAATTATTCGTTTAGTTAAACGAAT; chemistry not fully specified)",9.02E-02
